Source: patent publication US20250325531A1, “TREATMENT OF SYSTOLIC DYSFUNCTION” (MyoKardia, Inc., priority 2024, published 2025)

What was measured:
[1] = Food effect on pharmacokinetics, 200 mg as 25 mg tablets, fed vs fasted, healthy volunteers; format: in vivo, human
Excerpt: This example describes a clinical study for establishing, in healthy volunteers, the effect of a high fat, high caloric meal on the PK profile of Compound I, as compared to administration of the drug in the fasted state. The study also was intended to determine the safety and tolerability after a single oral dose of Compound I in the fed and fasted state in healthy volunteers. The measurements of PK, PD, and other clinical parameters were done as described in Example 1 above.
This study was an open-label, randomized, two-period cross-over study in healthy volunteers aged 18-55 years. Subjects were screened up to 28 days before the first treatment period. Subjects were admitted to the clinical site on Day −1 (the day before dosing) of Period 1. Approximately half of the subjects randomly received a single dose of Compound I on Day 1 of the first treatment period after the ingestion of a high fat, high caloric breakfast, and the remainder were dosed in the fasted state. Any subject with a predose resting HR ≥95 beats per minute (bpm) was considered ineligible and was not treated. Any subjects with an acute gastrointestinal disorder which could impact drug/food absorption (e.g., vomiting, diarrhea) were rescheduled. Subjects were confined to the clinic until Day 4, and discharged after the 72-hour postdose PK and laboratory samples and vital signs were obtained. After a washout between dosing from 7 to 10 days (or, after consultation with the Investigator, up to 21 days after initial dosing if the subject was unable to attend within the 7 to 10-day window), the subject was admitted for Period 2. The sequence of fed/fasted versus fasted/fed periods was randomized. Subjects returned after the second treatment period for a safety follow-up visit on Day 7 (+1 day).
In both treatment periods, Compound I was administered with 240 mL of water. In the fasted state, the subjects fasted for 10 hours before and for 4 hours after the administration of Compound I. Water could have been ingested up to 1 hour before and after 1 hour post dosing. In the fed state, the subjects fasted for 10 hours before and for 4 hours after the ingestion of the meal, but could have ingested water up to 1 hour before and 1 hour after dosing. In the fed state, the subjects started ingesting the high fat, high caloric meal within 30 minutes prior to Compound I administration and finished the meal within 30 minutes. The meal contained approximately 800 to 1000 calories with about 50% of the calories from fat. The meal consisted of approximately 150 calories from protein, 250 calories from carbohydrate, and 500-600 calories from fat. An example of the meal was a breakfast consisting of two eggs fried in butter, two strips of bacon, two slices of buttered toast, 4 ounces of hash brown potatoes, and 8 ounces of whole milk.
Each subject received two oral doses of 200 mg of Compound I formulated as 25 mg tablets (8 tablets) in a randomized, cross-over fashion, once in the fasted state and the other time after the ingestion of a high fat, high caloric breakfast. There was a washout of between 7 and 21 days between the administrations of the two doses. The Compound I drug substance was a crystalline, free-base, synthetic molecule with a molecular weight of 435.4.
Plasma drug concentrations were measured as described in Example 1 above. Blood samples to measure Compound I plasma concentration were collected at various time points, including on Day 1 predose (1 hour prior to dosing) and at 1 (±5 min), 2 (±5 min), 3 (±5 min), 4 (═10 min), 5 (±10 min), 6 (±10 min), 9 (±20 min), 12 (±20 min), 18 (±30 min), 24 (±30 min), 36 (±30 min), 48 (±30 min), and 72 (±30 min) hours postdose on both treatment periods.
To assess the effect of food on the PK of Compound I, the two one-sided t-test procedure was used to construct 90% CI around the geometric mean ratios (fed/fasted) of plasma AUCinf, AUClast, and Cmax. […]

[2] = tested on: patients with stable HFrEF; assay: TTE pharmacodynamics in MAD cohorts, patients with stable HFrEF; format: in vivo, human; details: plasma concentration group <2000 ng/mL (n = 30); LS mean difference vs placebo
Protocol: During the study, multiple evaluations were performed that included: serial TTE assessments (11-14 TTEs per patient on Days 1, 2, 3, 4, 7, 9, 10 and 11); PK sampling (PK sample collected concomitantly with every post-randomization echocardiogram); ECGs (on Days 2, 3, 4, 7, 9, 10, 11 and 16); troponin (collected concomitantly with every post-randomization ECG); and safety laboratory assessments. Confined patients underwent continuous telemetry. Holter monitoring was performed in all patients at baseline (Days 1-2) and at the end of double-blind treatment (Days 7-9). Vital signs were collected daily.
PD assessment was done by transthoracic echocardiography as described in Example 1 above. TTE evaluations of LVSV (derived from LVOT-VTI), LVEF, LVFS, SET, and other parameters were PD assessments at predetermined time points. The patients were on bed rest for 10 minutes before the TTEs were obtained. […]
The pharmacodynamic effects of Compound I on echocardiographic markers of cardiac structure and function were analyzed by Compound I plasma concentration groups: <2000 ng/mL (lower concentration group), 2000-3500 ng/ml (medium concentration group) and >3500 ng/ml (higher concentration group) (Table 16) and with PK-PD scatterplots (FIGS. 9A-9C). […]

[3] = 200 mg, subjects who completed both periods (N = 9)
[4] = 200 mg, subjects who completed both fasted and fed periods (N = 9)
[5] = single oral 200 mg, Fasted (N = 10)
[6] = single oral 200 mg, Fed (N = 10)

Q: With `Cn1cc(S(=O)(=O)[C@@](C)(F)C2CCN(C(=O)Nc3ccon3)CC2)c(C(F)F)n1` [Compound I, (R)-4-(1-((3-(difluoromethyl)-1-methyl-1H-pyrazol-4-yl)sulfonyl)-1-fluoroethyl)-N-(isoxazol-3-yl) piperidine-1-carboxamide] as the compound, how does the “exposure (Cmax) higher in fed vs fasted state” value ([1]; 200 mg) read?
A: ~60%

Q: And the “AUClast, Fasted LSGM” value ([1]; 200 mg, N = 11)?
A: 57400 ng·h/mL

Q: What about the “Cmax, Fasted LSGM” value ([1]; 200 mg, N = 11) of the same compound?
A: 2300 ng/mL

Q: What about the “Cmax, Fed LSGM” value ([1]; 200 mg, N = 11) of the same compound?
A: 3640 ng/mL

Q: And the “AUCinf, Geometric Mean Ratio - Fed/Fasted” value ([1]; 200 mg, N = 11, 90% CI 130.30-182.67)?
A: 154.28 % of Reference

Q: What about the “AUClast, Geometric Mean Ratio - Fed/Fasted” value ([1]; 200 mg, N = 11, 90% CI 131.11-180.92) of the same compound?
A: 154.02 % of Reference

Q: What about the “Cmax, Geometric Mean Ratio - Fed/Fasted” value ([1]; 200 mg, N = 11, 90% CI 137.11-182.33) of the same compound?
A: 158.11 % of Reference

Q: What about the “Median (range) Tmax” value ([1]; 200 mg, fed state) of the same compound?
A: 5.5 h

Q: What about the “AUC0-t geometric mean ratio (fed/fasted)” value [1, 3] of the same compound?
A: 153.20%

Q: What about the “AUCinf geometric mean ratio (fed/fasted)” value [1, 3] of the same compound?
A: 153.63%

Q: What about the “Cmax geometric mean ratio (fed/fasted)” value [1, 3] of the same compound?
A: 156.43%

Q: What about the “AUCinf, Geometric Mean Ratio - Fed/Fasted” value [1, 4] of the same compound?
A: 153.63 % of Reference

Q: And the “AUClast, Fasted LSGM” value [1, 4]?
A: 59000 ng·h/mL

Q: And the “AUClast, Geometric Mean Ratio - Fed/Fasted” value [1, 4]?
A: 153.20 % of Reference

Q: And the “Cmax, Fasted LSGM” value [1, 4]?
A: 2370 ng/mL

Q: And the “Cmax, Fed LSGM” value [1, 4]?
A: 3700 ng/mL

Q: What about the “Cmax, Geometric Mean Ratio - Fed/Fasted” value [1, 4] of the same compound?
A: 156.43 % of Reference

Q: What about the “MRT, Mean” value [1, 5] of the same compound?
A: 22.55 h

Q: And the “MRT, Median” value [1, 5]?
A: 23.86 h

Q: What about the “T1/2, z, Mean” value [1, 5] of the same compound?
A: 14.28 h

Q: And the “AUCinf, Median” value [1, 6]?
A: 93950 ng·h/mL

Q: What about the “AUClast, Geometric Mean” value [1, 6] of the same compound?
A: 88400 ng·h/mL

Q: What about the “AUClast, Median” value [1, 6] of the same compound?
A: 89310 ng·h/mL

Q: What about the “Cmax Geometric Mean” value [1, 6] of the same compound?
A: 3644 ng/mL

Q: And the “T1/2, z, Geometric Mean” value [1, 6]?
A: 13.56 h

Q: What about the “E/e′ (lateral), mean change from baseline (placebo-corrected)” value [2] of the same compound?
A: 0.8
